Results on four molecules are retold here after PubChem BioAssay (NCI).

Holding throughout (assay): NCI tumour cell line growth inhibition, 48 h
Test [1] has as its system CAKI-1 renal.
Test [2] deals with HS 578T breast.
The test system of test [3] is EKVX NSCLC.
Test [4] relates to RXF 393 renal.
The test system of test [5] is RPMI-8226 leukemia.
Test [6] relates to UO-31 renal.
Test [7] concerns NCI-H226 lung.
Test [8] relates to IGROV1 ovarian.
Test [9] concerns CCRF-CEM leukemia.
For test [10], the system named is HCT-15 colon.

Molecules are shown by their SMILES.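 Five compound concentrations were applied to cells in 96-well plates for 48 hours; endpoints were derived by simple linear interpolation of the resulting dose-response curve. At the GI50, growth is halved. TGI: total growth inhibition.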

On to `O=S(=O)(NCCCNc1cc(-c2cn(-c3ccccc3)nc2-c2cccc(O)c2)ccn1)c1ccc(Cl)cc1`, for which the GI50 was 2.3 µM in [1]; 1.16 µM in test [2]; 2.05 µM in [3]; 0.846 µM in test [4]; 1.49 µM in test [5]; 2.03 µM in test [6]. The GI50 in test [7] is 1.77 µM; in [8], 2.96 µM; in test [9] it was 2.43 µM; in test [10], 1.34 µM. Further, the TGI in test [1] was 12 µM; in [2], 4.77 µM; in test [3] it was 29.6 µM; in [4], 2.8 µM; in test [5] it was 4.68 µM; in [6], 8.64 µM. The TGI in test [7] was determined as 5.13 µM; in test [8] it was 13.2 µM; in test [9], 7.85 µM; in test [10], 3.45 µM.

With `COc1ccc(/C=C/C(=O)c2ccc(Nc3ccnc4cc(Cl)ccc34)cc2)cc1`, the GI50 in test [1] is greater than 100 µM; in [2], greater than 100 µM; in [3], greater than 100 µM; in test [4] it was greater than 100 µM; in test [5] it was 4.94 µM; in test [6], greater than 100 µM. For the same molecule, the GI50 is greater than 100 µM in test [7], greater than 100 µM in test [8], 5.64 µM in [9] and greater than 100 µM in test [10]. Further, the TGI in test [1] is greater than 100 µM; in test [2], greater than 100 µM; in test [3], greater than 100 µM; in test [4], greater than 100 µM; in test [5], greater than 55.6 µM; in test [6], greater than 100 µM. Also, the TGI in test [7], in test [8], in test [9] and in [10] was greater than 100 µM each time.

As for `O=C(O)/C=C\C(=O)Nc1ccc2c(c1)C(=O)c1cc(F)ccc1-2`, the TGI in test [1], in test [2], in test [3], in [4], in test [5] and in [6] was greater than 100 µM each time. For the same molecule, the TGI in test [7], in test [8], in test [9] and in test [10] was greater than 100 µM throughout.

Regarding `C[C@@]1(N2C(=O)OC[C@@H]2c2ccccc2)C(=O)N([C@H](CC(=O)N2CCC(N3CCCCC3)CC2)C(=O)NCc2cccc(C(F)(F)F)c2)[C@@H]1/C=C/c1ccccc1`, the GI50 is 2.3 µM in [1]; 2.09 µM in test [2]; 1.56 µM in [3]; 2.1 µM in test [4]; 2.59 µM in test [5]; 1.79 µM in [6]. Further, the GI50 in test [7] was 22.5 µM; in [8], 2.73 µM; in test [9], 2.97 µM; in [10] it was 1.79 µM. The TGI in test [1] is 6.55 µM; in [2], 4.78 µM; in test [3] it was 3.69 µM; in [4] it was 4.51 µM; in test [5], 6.38 µM; in [6], 3.52 µM. Besides, the TGI in [7] worked out at 39.7 µM; in [8] it was 8.49 µM; in test [9], 7.07 µM; in test [10] it was 3.62 µM.
